Experimental data taken from the NIST ThermoML archive (doi:10.1021/je501162f).

Experiments:
[1] = for viscosity / mass density: 101.33 kPa; for viscosity / mass density / surface tension liquid-gas: Liquid; for mass density: Vibrating tube method; for surface tension liquid-gas: Pendant drop shape; for Glass transition temperature: DTA
[2] = molar heat capacity at constant pressure; settings: 101.33 kPa, Liquid, Small sample (50 mg) DSC

CCCCCCCCn1cc[n+](C)c1.NCC(=O)[O-] [1-methyl-3-octylimidazolium glycinate]
Settings | mass density, [1] [kg/m3] | molar heat capacity at constant pressure, [2] [J/K/mol] | surface tension liquid-gas, [1] [mN/m] | viscosity, [1] [mPa·s]
293.15 K | 1041.7 | 504.06 | 35.37 | 486.4
303.15 K | 1035.3 | 511.67 | 33.98 | 248.2
313.15 K | 1029.1 | 518.04 | 32.81 | 137.9
323.15 K | 1023 | 526.8 | 31.35 | 82.4
333.15 K | 1016.8 | 536.66 | 30.07 | 52.3
343.15 K | 1010.6 | 546.99 | 28.75 | 34.9
353.15 K | 1004.4 | 555.85 | 27.42 | 24.4
363.15 K | 998.6 | – | – | 17.7
373.15 K | 992.8 | – | – | 13.3

Settings | Glass transition temperature [°C]
[1] | -69

CCCCCCCC[n+]1ccn(C)c1.N[C@@H](CO)C(=O)[O-] [1-methyl-3-octyl-1H-imidazol-3-ium L-serinate]
Settings | mass density, [1] [kg/m3] | molar heat capacity at constant pressure, [2] [J/K/mol] | surface tension liquid-gas, [1] [mN/m] | viscosity, [1] [mPa·s]
293.15 K | 1075.6 | 599.21 | 34.29 | 2853
303.15 K | 1069.3 | 607.97 | 32.8 | 1178.7
313.15 K | 1062.7 | 614.69 | 32.2 | 536.2
323.15 K | 1056.1 | 624.21 | 31.6 | 271.2
333.15 K | 1049.7 | 634.19 | 31 | 149.6
343.15 K | 1043.3 | 644.72 | 30.01 | 88.9
353.15 K | 1036.9 | 655.67 | 29.23 | 56.2
363.15 K | 1030.5 | – | – | 37.5
373.15 K | 1024.2 | – | – | 26.2

Settings | Glass transition temperature [°C]
[1] | -54

CCCCCCCC[n+]1ccn(C)c1.C[C@H](N)C(=O)[O-] [1-methyl-3-octylimidazolium L-alaninate]
Settings | mass density, [1] [kg/m3] | molar heat capacity at constant pressure, [2] [J/K/mol] | surface tension liquid-gas, [1] [mN/m] | viscosity, [1] [mPa·s]
293.15 K | 985.3 | 592.06 | 28.24 | 705.1
303.15 K | 982.1 | 600.95 | 27.9 | 347.3
313.15 K | 978.6 | 609.08 | 27.23 | 184.6
323.15 K | 975.8 | 620.49 | 26.61 | 106.9
333.15 K | 972.9 | 632.82 | 26.11 | 65.7
343.15 K | 969.3 | 645.14 | 25.55 | 42.9
353.15 K | 966.3 | 657.43 | 24.99 | 29.1
363.15 K | 962.6 | – | – | 20.7
373.15 K | 959.7 | – | – | 15.2

Settings | Glass transition temperature [°C]
[1] | -66

CCCCCCCCn1cc[n+](C)c1.O=C([O-])[C@@H]1CCCN1 [1-methyl-3-octyl-1H-imidazol-3-ium L-prolinate]
Settings | mass density, [1] [kg/m3] | molar heat capacity at constant pressure, [2] [J/K/mol] | surface tension liquid-gas, [1] [mN/m] | viscosity, [1] [mPa·s]
293.15 K | 1064.5 | 561.68 | 29.28 | 1969.8
303.15 K | 1058.2 | 569.53 | 28.88 | 839.9
313.15 K | 1051.8 | 578.89 | 28.46 | 401.2
323.15 K | 1045.5 | 590.88 | 28.17 | 211
333.15 K | 1039.1 | 603.42 | 27.76 | 120.3
343.15 K | 1032.8 | 615.85 | 27.62 | 73.2
353.15 K | 1026.4 | 627.51 | 27.14 | 47.2
363.15 K | 1020.1 | – | – | 31.9
373.15 K | 1013.9 | – | – | 22.4

Settings | Glass transition temperature [°C]
[1] | -62

CCCCCCCC[n+]1ccn(C)c1.NC(=O)C[C@H](N)C(=O)[O-] [1-methyl-3-octylimidazolium L-asparaginate]
Settings | mass density, [1] [kg/m3] | molar heat capacity at constant pressure, [2] [J/K/mol] | surface tension liquid-gas, [1] [mN/m] | viscosity, [1] [mPa·s]
293.15 K | – | 654 | 34.32 | –
303.15 K | 1061.7 | 662.93 | 33.7 | 3519.9
313.15 K | 1057.2 | 670.78 | 32.96 | 1436.8
323.15 K | 1052.2 | 682.99 | 31.99 | 659.1
333.15 K | 1048.6 | 694.16 | 31.73 | 333.3
343.15 K | 1044.1 | 705.81 | 30.88 | 182.6
353.15 K | 1039 | 717.01 | 30.19 | 107.1
363.15 K | 1034.4 | – | – | 66.6
373.15 K | 1030.1 | – | – | 43.5

Settings | Glass transition temperature [°C]
[1] | -44
